This note sets out measurements from patent US20240400549A1, “COMPOUNDS AND THEIR USES FOR TREATING NEURODEGENERATIVE DISEASE” (Academia Sinica, priority 2021, published 2024).

One data set has as its target T1, eGFP-C-TDP-43 aggregates (Homo sapiens, UniProt Q13148).
T1 construct: expressed in transfected cells; host or cells: Neuro-2a (mouse neuroblastoma)
Put plainly: Filter trap assay of insoluble eGFP-C-TDP-43 aggregates in transfected Neuro-2a cells. Particulars: 5 μM. It counts as cell-based, mouse. The procedure:
(§1) Mouse neuroblastoma cell line (Neuro-2a) were cultured in Dulbecco's modified Eagle's medium (DMEM; Gibco) containing 2×10^−3 M glutamine, 10% heat inactivated fetal bovine serum (FBS), and 100 U mL^−1 penicillin-streptomycin (Gibco) at 37° C. in a humidified incubator containing 5% CO2. Alternatively, Neuro-2a cells were cultured in Dulbecco's modified Eagle's medium (DMEM; Invitrogen, Carlsbad, CA, USA) supplemented with 10% heat-inactivated FBS. The cells were incubated in a humidified incubator at 37° C. with 10% CO2. Transfection was performed using T-Pro NTR II (Ji-Feng Biotechnology, Taiwan) following the manufacturer's protocol.
Neuro-2a cells were seeded in a 6-well plate at a concentration of 2×10^5 cells/well and incubated overnight. Once the cells were attached, Neuro-2a cells were transfected with the eGFP-C-TDP-43 plasmid (2.2 μg) using Turbofect transfection reagent (Invitrogen) and treated with or without 5 μM test compound after 2 h transfection. After incubation for another 22 h, the transfected cells were harvested by RIPA buffer containing protease inhibitor (Roche) and sonicated on ice for 10 seconds. Extracts were centrifuged at 14000 rpm for 10 min at 4° C., followed by measurement of protein concentration using a bicinchoninic acid (BCA) assay. […] Aggregated eGFP-C-TDP-43 protein trapped by the CA membranes was determined by immunoblotting. […]
In this example, the effect of the present compound on C-TDP-43 aggregates was investigated. To this purpose, the eGFP-TDP-43208-414 (hereafter referred as eGFP-C-TDP-43) expressed Neuro-2a cells were first treated with tested compound (e.g., any one of the compounds of formula (I) or (II), then, cells were lysed and the insoluble eGFP-C-TDP43 aggregates were quantified by use of filter trap assay as described in the “Materials and Methods” section; for comparison, slot blot assay was also performed by using the nitrocellulose (NC) membrane for the loading control. Results are depicted in FIG. 1.

A further data set deals with Neuro-2a cells. Put plainly: Cytotoxicity of compounds in Neuro-2a cells. It counts as cell-based, mouse. Particulars: for cytotoxicity as compared to that of compound II-1d: 5 or 10 μM concentration, Neuro-2a cells.
A further data set has as its target T2, 109Q-HTTEX1 (Homo sapiens, UniProt P42858).
T2 construct: the polyQ-expanded N terminus of HTT translated from the exon 1 of human huntingtin gene; expressed in transfected cells; host or cells: Neuro-2a (mouse neuroblastoma)
Put plainly: Western blot of polyQ-expanded huntingtin (109Q-HTTEX1) in transfected Neuro-2a cells. It counts as cell-based. Particulars: 5 μM, 24 h. The procedure: as §1
(§2) Alternatively, cells were lysed with RIPA lysis buffer (150 mM sodium chloride, 1% Nonidet P-40, 0.5% sodium deoxycholate, 0.1% SDS, and 50 mM Tris-HCl, pH 8.0) containing 1× protease inhibitor cocktail and 1× phosphatase inhibitor cocktail to prepare total lysates, which were rotated at 4° C. for 1 h. Protein concentrations were determined with a Bio-Rad protein assay kit (Bio-Rad, Hercules, CA, USA). Protein samples were separated on 8-10% SDS-PAGE gels and electrophoretically transferred onto PVDF membranes (Millipore, Billerica, MA, USA). The membranes were incubated overnight at 4° C. with the following primary antibodies: anti-GAPDH (GeneTex; GTX627408), anti-HTT (Habel; a custom antibody raised against protein translated from the exon 1 of HTT (designated HTTEX1), anti-pTau (MC1, a generous gift from Dr. Peter Davies, the Feinstein Institute for Medical Research, New York, USA), and anti-VCP (BD, East Rutherford, NJ, USA). Immunoreactive bands were detected by enhanced chemiluminescence (ECL; Millipore) and recorded using the UVP ChemiDoc-It Imaging System (Upland, CA, USA).
In this example, the effect of the present compound on huntingtin (HTT) protein (a protein known to cause Huntington's disease) was investigated. To this purpose, Neuro-2a cells were transiently transfected with pcDNA3-109Q-HTTEX1 (i.e., the polyQ-expanded N terminus of HTT translated from the exon 1 of human huntingtin gene (designated 109Q-HTTEX1)) and then exposed to the indicated compound (5 μM) for additional 24 h. Total protein lysates were harvested for Western blot analyses, and results are depicted in FIG. 3.
(Immunoblotting shows a protein as a band on a membrane.)

Data set [1] deals with T3, pathogenic tau protein (pTau) (Homo sapiens, UniProt P10636, P618L).
T3 construct: expressed in transfected cells; host or cells: SH-SY5Y-Tau-P301L (doxycycline-inducible)
T3 sequence (P10636 1-441 isoform P10636-8 P301L): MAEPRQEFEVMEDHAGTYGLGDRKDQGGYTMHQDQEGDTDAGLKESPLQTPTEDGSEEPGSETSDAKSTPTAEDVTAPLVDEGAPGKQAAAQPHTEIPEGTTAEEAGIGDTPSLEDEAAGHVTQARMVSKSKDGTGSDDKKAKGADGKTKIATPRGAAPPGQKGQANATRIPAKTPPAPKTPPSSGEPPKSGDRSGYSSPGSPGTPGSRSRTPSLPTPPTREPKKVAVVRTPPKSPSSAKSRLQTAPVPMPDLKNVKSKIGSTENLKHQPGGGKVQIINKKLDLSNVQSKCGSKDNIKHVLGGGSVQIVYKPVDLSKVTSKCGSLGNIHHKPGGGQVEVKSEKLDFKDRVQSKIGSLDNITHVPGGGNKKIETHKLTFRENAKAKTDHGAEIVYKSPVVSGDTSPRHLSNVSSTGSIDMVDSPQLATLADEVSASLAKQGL
Put plainly: Western blot of pathogenic tau protein (pTau) in SH-SY5Y-Tau-P301L cells. It counts as cell-based. Particulars: 5 μM, 24 h, doxycycline-induced SH-SY5Y-Tau-P301L cells. The method, then: The SH-SY5Y-Tau-P301L cell line (SY5Y-Tau) were cultured in DMEM supplemented with 10% FBS and incubated in a humidified incubator at 37° C. with 5% CO2. To induce the expression of pathogenic Tau (pTau), SY5Y-Tau cells were seeded at 1×10^5/60-mm plate, cultured for 2-3 days to reach 70% confluence, and treated with doxycycline (1 μg/mL) for 24 hr to induce the expression of pTau.
as §2
Hyperphosphorylated tau protein is a major hallmark of Alzheimer's disease and many other neurological disorders (including Huntington's disease). To investigate the effects of the compounds of formula (I) or formula (II) on the pathogenic tau protein (designated pTau), SH-SY5Y-Tau-P301L cells were treated with doxycycline (1 μg/mL) (which induced the expression of pathogenic tau protein (pTau), and the indicated compound (5 μM) for 24 h. Total protein lysates were then harvested and analyzed by Western blot analyses. Results are illustrated in FIG. 4.

In data set [2] the test system is YFP—C-TDP-43 transgenic C. elegans. Put plainly: Swimming (thrashing) body bend assay of YFP-C-TDP-43 transgenic C. elegans. Particulars: YFP—C-TDP-43 C. elegans, swimming in buffer. It counts as in vivo. The procedure: The YFP—C-TDP-43 transgenic strains of C. elegans generated in this study were IW33 [Psnb-l:C-TDP-43219-414-YFP (iwIs22)]. The strains of nematodes were maintained with standard procedure and grown at 20° C. as previously described (Zhang, T. et al. Hum. Mol. Genet. 2011, 20 (10), 1952). For all assays, the transgenic young two-day (80 hours) adults were used. For larvae synchronization, the eggs were isolated by lysing gravid adult worms with freshly prepared bleaching solution (0.5 mL 5 M NaOH with 1 mL bleach) and incubated in S buffer (recipe) for overnight. For drug treatments, compound I-1b and/or DMSO were solely or along with MG132 applied to fresh NGM plates prior to installing the synchronized C. elegans. The body bends of the corresponding treatment in a duration of 30 seconds of the various strains were documented through SMZ800N stereomicroscope equipped with a CCD camera (Nikon). A body bend was counted as the head of C. elegans travels across the mid-body in 1×PBS buffer. Then, the bending videos of C. elegans were analyzed by ImageJ with the wrMTrck plugin (Nussbaum-Krammer, C. I. et al. J. Vis. Exp. 2015, (95), 52321). […]
As YFP—C-TDP-43 readily forms cytosolic aggregates in nervous system, the YFP—C-TDP-43 aggregates both in the neuron processes and neuron bodies of the ventral cord were monitored. […]

Peptide text beside a SMILES is read from it. * marks the point of attachment. Cbz = O=C(OCc1ccccc1)*

T2 sequence (P42858 with tags, fused parts or gaps): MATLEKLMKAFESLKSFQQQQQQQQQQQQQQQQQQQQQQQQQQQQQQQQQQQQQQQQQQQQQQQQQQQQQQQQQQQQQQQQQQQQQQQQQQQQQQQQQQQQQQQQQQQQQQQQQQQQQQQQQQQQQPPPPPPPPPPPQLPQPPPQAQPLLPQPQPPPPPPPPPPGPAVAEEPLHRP
T1 sequence (Q13148 208-414 limits assumed): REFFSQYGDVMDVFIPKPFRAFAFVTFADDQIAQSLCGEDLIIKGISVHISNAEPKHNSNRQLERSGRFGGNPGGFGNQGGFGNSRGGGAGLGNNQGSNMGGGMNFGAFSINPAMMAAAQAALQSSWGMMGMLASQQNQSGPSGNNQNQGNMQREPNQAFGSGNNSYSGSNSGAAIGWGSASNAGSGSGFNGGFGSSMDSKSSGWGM

On to `CNc1ccc(/C=C/c2ccc(OCCCCCCCCCCNc3cccc4c3C(=O)N(C3CCC(=O)NC3=O)C4=O)nc2)cc1` (stereo not drawn) [II-2d, (E)-2-(2,6-dioxopiperidin-3-yl)-4-((10-((5-(4-(methylamino)styryl)pyridin-2-yl)oxy)decyl)amino)isoindoline-1,3-dione], for which, on eGFP-C-TDP-43 aggregates, the “level of C-TDP-43 aggregate as compared to the control group” value (from here on “level … compared to the control group”) is “significantly reduce”. In addition, the “cytotoxicity as compared to that of compound II-1d” value with Neuro-2a cells is “lower toxicity”.

As for `CNc1ccc(/C=C/c2ccc(OCCOCCOCCNc3cccc4c3C(=O)N(C3CCC(=O)NC3=O)C4=O)nc2)cc1` (stereo not drawn) [II-1b, (E)-2-(2,6-dioxopiperidin-3-yl)-4-((2-(2-(2-((5-(4-(methylamino)styryl)pyridin-2-yl)oxy)ethoxy)ethoxy)ethyl)amino)isoindoline-1,3-dione], the “level … compared to the control group” value on eGFP-C-TDP-43 aggregates is on record as “significantly reduce”. Besides, in the data set on Neuro-2a cells, the “cytotoxicity as compared to that of compound II-1d” value is reported as “less cytotoxicity”. Also, at 109Q-HTTEX1, the “reduction of the expression of 109Q-HTTEX1” value (“reduction … of 109Q-HTTEX1” below) was found to be 20%. In addition, in data set [1] (listed as IT-1b), the “reduction of the expressed level of pTau” value is listed as “negligible effect”.

With `CN(C)c1ccc(-c2nc3ccc(OCCOCCNc4cccc5c4C(=O)N(C4CCC(=O)NC4=O)C5=O)cc3s2)cc1` (stereo not drawn) [I-1a, 4-((2-(2-((2-(4-(dimethylamino)phenyl)benzo[d]thiazol-6-yl)oxy)ethoxy)ethyl)amino)-2-(2,6-dioxopiperidin-3-yl)isoindoline-1,3-dione], the “cytotoxicity comparing to mock group of Neuro-2a cells” value in the data set on Neuro-2a cells (5 μM concentration) was “neglectable cytotoxicity”.

Turning to `CNc1ccc(/C=C/c2ccc(OCCOCCOCCNc3cccc4c3C(=O)N(C3CCC(=O)NC3=O)C4=O)nc2)cc1` (stereo not drawn) [II-1d, (E)-2-(2,6-dioxopiperidin-3-yl)-4-((2-(2-(2-((5-(4-(methylamino)styryl)pyridin-2-yl)oxy)ethoxy)ethoxy)ethyl)amino)isoindoline-1,3-dione], the “level … compared to the control group” value at eGFP-C-TDP-43 aggregates is on record as “significantly reduce”. Besides, the “reduction … of 109Q-HTTEX1” value on 109Q-HTTEX1 is “approximately 50%”. Moreover, in data set [1], the “reduction of the expressed level of pTau” value is recorded as “approximately 40%”.

Regarding `CC(C)C[C@@H](C=O)NC(=O)[C@H](CC(C)C)NC(=O)[C@H](CC(C)C)NC(=O)OCc1ccccc1` [MG132, reference compound] (Cbz-Leu-Leu-Leu-aldehyde), the “bending frequency (in words)” value in data set [2] was “slow bending frequency”.

As to `CN(C)c1ccc(-c2nc3ccc(OCCOCCOCCOCCOCCNc4cccc5c4C(=O)N(C4CCC(=O)NC4=O)C5=O)cc3s2)cc1` (stereo not drawn) [I-1d, 4-((14-((2-(4-(dimethylamino)phenyl)benzo[d]thiazol-6-yl)oxy)-3,6,9,12-tetraoxatetradecyl)amino)-2-(2,6-dioxopiperidin-3-yl)isoindoline-1,3-dione], on 109Q-HTTEX1, the “reduction … of 109Q-HTTEX1” value is reported as “approximately 50%”. Further, in data set [1], the “reduction of the expressed level of pTau” value was “approximately 40%”.

Consider `CN(C)c1ccc(-c2nc3ccc(OCCOCCOCCOCCNc4cccc5c4C(=O)N(C4CCC(=O)NC4=O)C5=O)cc3s2)cc1` (stereo not drawn) [I-1c, 4-((2-(2-(2-(2-((2-(4-(dimethylamino)phenyl)benzo[d]thiazol-6yl)oxy)ethoxy)ethoxy)ethoxy)ethyl)amino)-2-(2,6-dioxopiperidin-3-yl)isoindoline-1,3-dione], for which the “reduction … of 109Q-HTTEX1” value on 109Q-HTTEX1 is “approximately 50%”. Further, in data set [1], the “reduction of the expressed level of pTau” value is “approximately 40%”.
